Legend:
Format in all cases: in vivo
[1] = system: barnyardgrass (Echinochloa crus-galli); test: Test D flooded paddy test, visual plant response rating; details: 250 g ai/ha, scale 0 to 100 (0 no effect, 100 complete control), 13 to 15 d
In short: (§1)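 Greenhouse paddy assay scored on a 0–100 visual scale after 13 to 15 d, where 100 means complete control and a dash marks no result; dosing was into 3 cm floodwater over 2-leaf plants.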

rice (Oryza sativa) = test: as above; details: 250 g ai/ha, scale 0 to 100 (0 no effect, 100 complete control), 13 to 15 d
In short: as §1

[2] = system: sedge umbrella (small-flower umbrella sedge, Cyperus difformis); test: as above; details: 250 g ai/ha, scale 0 to 100 (0 no effect, 100 complete control), 13 to 15 d
In short: as §1

[3] = system: duck salad (Heteranthera limosa); test: as above; details: 250 g ai/ha, scale 0 to 100 (0 no effect, 100 complete control), 13 to 15 d
In short: as §1

[4] = system: barnyardgrass (Echinochloa crus-galli); test: Test C preemergence, visual plant response rating
In short: (§2)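 Seeds sown in a loam–sand blend got a directed preemergence soil spray; postemergence plants (2–10 cm, one- to two-leaf stage) were sprayed with compound in a non-phytotoxic solvent plus surfactant. Injury was scored visually against untreated controls after about 10 d in a greenhouse on a 0–100 scale (100 = complete control).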

[5] = system: ragweed (common ragweed, Ambrosia artemisiifolia); test: Test C preemergence, visual plant response rating
In short: as §2

[6] = system: pigweed (Amaranthus retroflexus); test: Test C preemergence, visual plant response rating
In short: as §2

[7] = system: Italian ryegrass (Lolium mutiflorum); test: Test C preemergence, visual plant response rating
In short: as §2

[8] = system: foxtail, giant (giant foxtail, Setaria faberi); test: Test C preemergence, visual plant response rating
In short: as §2

kochia (Bassia scoparia) [9] = test: Test C preemergence, visual plant response rating
In short: as §2

corn (Zea mays) = test: Test C postemergence, visual plant response rating
In short: as §2

[10] = system: barnyardgrass (Echinochloa crus-galli); test: Test C postemergence, visual plant response rating
In short: as §2

[11] = system: ragweed (common ragweed, Ambrosia artemisiifolia); test: Test C postemergence, visual plant response rating
In short: as §2

[12] = system: pigweed (Amaranthus retroflexus); test: Test C postemergence, visual plant response rating
In short: as §2

[13] = system: galium (catchweed bedstraw, Galium aparine); test: Test C postemergence, visual plant response rating
In short: as §2

[14] = system: blackgrass (Alopecurus myosuroides); test: Test C postemergence, visual plant response rating
In short: as §2

[15] = system: Italian ryegrass (Lolium mutiflorum); test: Test C postemergence, visual plant response rating
In short: as §2

[16] = system: foxtail, giant (giant foxtail, Setaria faberi); test: Test C postemergence, visual plant response rating
In short: as §2

kochia (Bassia scoparia) [17] = test: Test C postemergence, visual plant response rating
In short: as §2

[18] = system: wheat (Triticum aestivum); test: Test C postemergence, visual plant response rating
In short: as §2

[19] = Test C, 31 g ai/ha, 0 is no effect, 100 is complete control
[20] = Test C, postemergence, 125 g ai/ha

Compound: Cc1nn(C)c(=O)c(/C(=N/OC(C)C)c2cc(Cl)cc(Cl)c2F)c1O [Compound 179]
- Plant response rating, Barnyardgrass (Flood) [1]: 95
- Plant response rating, Rice (Flood) (rice (Oryza sativa)): 70
- Plant response rating, Sedge, Umbrella (Flood) [2]: 95
- Plant response rating, Ducksalad (Flood) [3]: 80
- Barnyardgrass plant response rating (0 to 100 scale) ([4]; 125 g ai/ha): 100
- Barnyardgrass plant response rating (0 to 100 scale) [4, 19]: 90
- Ragweed plant response rating (0 to 100 scale) ([5]; 125 g ai/ha): 100
- Ragweed plant response rating (0 to 100 scale) [5, 19]: 90
- Pigweed plant response rating (0 to 100 scale) ([6]; 125 g ai/ha): 100
- Pigweed plant response rating (0 to 100 scale) [6, 19]: 100
- Ryegrass, Italian plant response rating (0 to 100 scale) ([7]; 125 g ai/ha): 100
- Ryegrass, Italian plant response rating (0 to 100 scale) [7, 19]: 100
- Foxtail, Giant plant response rating (0 to 100 scale) ([8]; 125 g ai/ha): 100
- Foxtail, Giant plant response rating (0 to 100 scale) [8, 19]: 100
- Kochia plant response rating (0 to 100 scale) (kochia (Bassia scoparia) [9]; 125 g ai/ha): 90
- Kochia plant response rating (0 to 100 scale) (kochia (Bassia scoparia) [9]; [19]): 90
- Corn plant response rating (0 to 100 scale) (corn (Zea mays); Postemergence, 31 g ai/ha): 30
- Corn plant response rating (0 to 100 scale) (corn (Zea mays); [20]): 80
- Barnyardgrass plant response rating (0 to 100 scale) ([10]; Postemergence, 31 g ai/ha): 90
- Barnyardgrass plant response rating (0 to 100 scale) [10, 20]: 80
- Ragweed plant response rating (0 to 100 scale) ([11]; Postemergence, 31 g ai/ha): 100
- Ragweed plant response rating (0 to 100 scale) [11, 20]: 100
- Pigweed plant response rating (0 to 100 scale) ([12]; Postemergence, 31 g ai/ha): 100
- Pigweed plant response rating (0 to 100 scale) [12, 20]: 100
- Galium plant response rating (0 to 100 scale) ([13]; Postemergence, 31 g ai/ha): 100
- Galium plant response rating (0 to 100 scale) [13, 20]: 100
- Blackgrass plant response rating (0 to 100 scale) ([14]; Postemergence, 31 g ai/ha): 80
- Blackgrass plant response rating (0 to 100 scale) [14, 20]: 90
- Ryegrass, Italian plant response rating (0 to 100 scale) ([15]; Postemergence, 31 g ai/ha): 90
- Ryegrass, Italian plant response rating (0 to 100 scale) [15, 20]: 100
- Foxtail, Giant plant response rating (0 to 100 scale) ([16]; Postemergence, 31 g ai/ha): 90
- Foxtail, Giant plant response rating (0 to 100 scale) [16, 20]: 100
- Kochia plant response rating (0 to 100 scale) (kochia (Bassia scoparia) [17]; Postemergence, 31 g ai/ha): 80
- Kochia plant response rating (0 to 100 scale) (kochia (Bassia scoparia) [17]; [20]): 100
- Wheat plant response rating (0 to 100 scale) ([18]; Postemergence, 31 g ai/ha): 80
- Wheat plant response rating (0 to 100 scale) [18, 20]: 100

Compound: C#CCO/N=C(\c1c(O)c(C)nn(C)c1=O)c1cc(Cl)cc2ccccc12 [Compound 191]
- Plant response rating, Barnyardgrass (Flood) [1]: 70
- Plant response rating, Rice (Flood) (rice (Oryza sativa)): 60
- Plant response rating, Sedge, Umbrella (Flood) [2]: 80
- Plant response rating, Ducksalad (Flood) [3]: 75
- Barnyardgrass plant response rating (0 to 100 scale) ([4]; 125 g ai/ha): 90
- Barnyardgrass plant response rating (0 to 100 scale) [4, 19]: 30
- Ragweed plant response rating (0 to 100 scale) ([5]; 125 g ai/ha): 80
- Ragweed plant response rating (0 to 100 scale) [5, 19]: 50
- Pigweed plant response rating (0 to 100 scale) ([6]; 125 g ai/ha): 100
- Pigweed plant response rating (0 to 100 scale) [6, 19]: 80
- Ryegrass, Italian plant response rating (0 to 100 scale) ([7]; 125 g ai/ha): 80
- Ryegrass, Italian plant response rating (0 to 100 scale) [7, 19]: 30
- Foxtail, Giant plant response rating (0 to 100 scale) ([8]; 125 g ai/ha): 90
- Foxtail, Giant plant response rating (0 to 100 scale) [8, 19]: 70
- Kochia plant response rating (0 to 100 scale) (kochia (Bassia scoparia) [9]; 125 g ai/ha): 60
- Kochia plant response rating (0 to 100 scale) (kochia (Bassia scoparia) [9]; [19]): 10
- Corn plant response rating (0 to 100 scale) (corn (Zea mays); Postemergence, 31 g ai/ha): 10
- Corn plant response rating (0 to 100 scale) (corn (Zea mays); [20]): 60
- Barnyardgrass plant response rating (0 to 100 scale) ([10]; Postemergence, 31 g ai/ha): 80
- Barnyardgrass plant response rating (0 to 100 scale) [10, 20]: 90
- Ragweed plant response rating (0 to 100 scale) ([11]; Postemergence, 31 g ai/ha): 70
- Ragweed plant response rating (0 to 100 scale) [11, 20]: 80
- Pigweed plant response rating (0 to 100 scale) ([12]; Postemergence, 31 g ai/ha): 90
- Pigweed plant response rating (0 to 100 scale) [12, 20]: 100
- Galium plant response rating (0 to 100 scale) ([13]; Postemergence, 31 g ai/ha): 70
- Galium plant response rating (0 to 100 scale) [13, 20]: 100
- Blackgrass plant response rating (0 to 100 scale) ([14]; Postemergence, 31 g ai/ha): 80
- Blackgrass plant response rating (0 to 100 scale) [14, 20]: 70
- Ryegrass, Italian plant response rating (0 to 100 scale) ([15]; Postemergence, 31 g ai/ha): 0
- Ryegrass, Italian plant response rating (0 to 100 scale) [15, 20]: 80
- Foxtail, Giant plant response rating (0 to 100 scale) ([16]; Postemergence, 31 g ai/ha): 70
- Foxtail, Giant plant response rating (0 to 100 scale) [16, 20]: 80
- Kochia plant response rating (0 to 100 scale) (kochia (Bassia scoparia) [17]; Postemergence, 31 g ai/ha): 50
- Kochia plant response rating (0 to 100 scale) (kochia (Bassia scoparia) [17]; [20]): 80
- Wheat plant response rating (0 to 100 scale) ([18]; Postemergence, 31 g ai/ha): 0
- Wheat plant response rating (0 to 100 scale) [18, 20]: 70

Source: patent US20210045385A1, “PYRIDAZINONE-SUBSTITUTED KETOXIMES AS HERBICIDES” (FMC Corporation, priority 2018, published 2021)
